Test results from publication PMC12067093, “Discovery and optimisation of a covalent ligand for TRIM25 and its application to targeted protein ubiquitination” (Chemical Science, 2025).

Assays:
TRIM25 PRYSPRY [1] = target: T1, TRIM25 PRYSPRY (Homo sapiens, UniProt Q14258); assay: Intact protein LCMS covalent labelling of recombinant TRIM25 PRYSPRY; type: binding; conditions: 4 °C, 24 h
T1 construct: His6-TEV (cleaved yes); made in house; host or cells: Sf9 insect cells (baculovirus)
Protocol: 1 resin (ThermoFisher Scientific, 89964), eluted in 100 mM HEPES pH 7, 500 mM NaCl,
2 300 mM Imidazole, 5% glycerol, 1 mM TCEP, and stored at -80 °C.
5 into a pET49 vector with a His6-HRV-3C (Human Rhinovirus) tag and expressed in
6 BL21 E.coli cells (Agilent Technologies; 230132), with induction at 18 °C overnight by
7 addition of isopropyl β-D-1-thiogalactopyranoside (0.5 mM). Cells were harvested by
8 centrifugation at 4000 rpm in a Beckman J6-M1 rotor for 30 min at 4 °C, the
9 supernatant was discarded and cell pellets were either immediately lysed, or stored at
10 -80°C. The protein was purified via His6-capture on HisPurTM Ni-NTA resin in buffer
11 50 mM HEPES pH 7.5, 300 mM NaCl, 0.5 mM TCEP, 20 mM imidazole, washed
12 extensively with both high salt buffer (50 mM HEPES pH 7.5, 1 M NaCl, 0.5 mM TCEP,
13 20 mM imidazole) and wash buffer (50 mM HEPES pH 7.5, 300 mM NaCl, 0.5 mM
14 TCEP, 20 mM imidazole) before elution in buffer 50 mM HEPES pH 7.5, 300 mM NaCl,
15 0.5 mM TCEP, 500 mM imidazole, and tag cleavage with HRV-3C protease. Cleaved
16 protein was further purified by ion exchange chromatography and size exclusion
17 chromatography into 20 mM HEPES pH 7.5, 150 mM NaCl, 0.5 mM TCEP, and stored
21 For the original chloroacetamide fragment screen, 0.25 μM TRIM25 PRYSPRY or
23 25 mM HEPES pH 7.5, 50 mM NaCl buffer. For intact protein liquid chromatography
24 mass spectrometry (LCMS) kinetic characterisation, 0.5 μM TRIM25 PRYSPRY was
25 used. For selectivity testing with recombinant ubiquitin system protein panel, 10 µM
27 7.5, 50 mM NaCl buffer. Samples were then diluted to 0.5 µM for TRIM25 PRYSPRY,
28 TRIM21 PRYSPRY, OTUD7B OTU, ZRANB1 OTU or 1 µM for TRIM2 NHL, UBCH5B,
29 UBC13K92A, UEV1A, OTUD4 OTU, before injection into the LCMS. For TRIM25
30 PRYSPRY mutants, and for labelling of heterobifunctional compounds, 10 µM protein
32 mM NaCl buffer, and samples were diluted to 1 µM protein before injection into the […]

[2] = buffer; cited from earlier work
TRIM25 PRYSPRY [3] = target: T1, TRIM25 PRYSPRY; assay: Kinetic characterisation of covalent labelling by intact protein LCMS (kinact/KI); type: binding; conditions: TRIM25 PRYSPRY 0.5 μM, 4 °C
Protocol: 8 were characterised by kinetic reaction monitoring by intact protein LCMS. 0.5 µM
10 dilution series (final compound concentrations 100 µM (only for fragments 1 – 8),
12 and 1% DMSO-only control also used). Assays were performed in technical duplicates
Protein and compounds were incubated at 4 °C, in 25 mM HEPES
15 pH 7.5, 50 mM NaCl buffer, with each timepoint and replicate in a separate well.
18 measurement were saved with each reading and used for kinetic calculations.
19 protein masses were recorded, deconvoluted and percentage labelling values
20 extracted in the same way as described above. Percentage labelling values were
21 plotted against time in Prism 10 (GraphPad), and curves fitted separately for each
22 replicate to a one-phase association model with constraints Y0 = 0, and plateau = 100.
23 Observed rate constants (k obs, h-1, generated in Prism 10 as K values) were then
26 of two or three replicates to a straight line model with constraint Y-intercept = 0.
27 gradient of these plots (converted from µM-1h-1 to M-1s-1) gives the pseudo-first order
28 rate parameter, kinact/K I (M-1s-1), for each compound. kinact/KI values are reported as
29 mean ± SD of the slope based on a linear fit model, n = 2 or 3. For n = 2 data, errors
30 are reported as standard errors of fit, as calculated in Prism 10. For n = 3 data, errors […]

[4] = fragment screen: fragment 50 μM, TRIM25 PRYSPRY […]

T1 sequence (Q14258 435-630): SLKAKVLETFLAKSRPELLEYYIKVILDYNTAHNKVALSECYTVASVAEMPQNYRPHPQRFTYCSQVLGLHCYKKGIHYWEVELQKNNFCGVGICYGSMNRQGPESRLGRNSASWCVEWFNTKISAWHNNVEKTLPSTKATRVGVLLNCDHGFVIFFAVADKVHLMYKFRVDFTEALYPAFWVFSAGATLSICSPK

## O=C(CCl)N1CCCN(C(=O)c2ccc(Cl)cc2)CC1 [Fragment 1]
TRIM25 PRYSPRY [1]; [4]
  TRIM25 PRYSPRY labelling (%): 55%

## C=CC(=O)Nc1cc(Nc2nccc(-c3cn(C)c4ccccc34)n2)c(OC)cc1N(C)CCN(C)C [osimertinib]
[2]
  GSH t1/2: 1.3 h

## NC(=O)C1CCCCN1C(=O)CCl (stereo not shown) [Fragment 3]
TRIM25 PRYSPRY [3]; eight timepoints across 24 h, n = 2, mean ± SE of fit
  kinact/KI: 0.13 ± 0.01 M⁻¹ s⁻¹
TRIM25 PRYSPRY [1]; [4]
  TRIM25 PRYSPRY labelling (%): 39%

## N#Cc1cnccc1NC(=O)C1CCCN(C(=O)CCl)C1 (stereo not shown) [Compound 12]
TRIM25 PRYSPRY [3]; purified compounds, mean ± SD, n = 3
  kinact/KI: 0.26 ± 0.01 M⁻¹ s⁻¹
TRIM25 PRYSPRY [1]; purified compound 50 μM, TRIM25 PRYSPRY 10 μM
  TRIM25 PRYSPRY labelling (%): 51%

## CCN1C(=O)C2CN(C(=O)CCl)CCN2C1=O (stereo not shown) [Fragment 2]
TRIM25 PRYSPRY [1]; [4]
  TRIM25 PRYSPRY labelling (%): 50%
